Laboratory results from ChEMBL document CHEMBL6096734, “Design, Synthesis and Anti-Inflammatory Evaluation of 3-Substituted 5-Amidobenzoate Derivatives as Novel P2Y14 Receptor Antagonists via Structure-Guided Molecular Hybridization” (J Med Chem, 2025).

How the values were obtained:
[1] = Cmax in male Sprague-Dawley rat at 10 mg/kg, iv measured upto 24 hrs; format: ADME, organism-based; details: in vivo
[2] = Half life in male Sprague-Dawley rat at 10 mg/kg, iv measured upto 24 hrs; format: ADME, organism-based; details: in vivo
[3] = Tmax in male Sprague-Dawley rat at 10 mg/kg, iv measured upto 24 hrs; format: ADME, organism-based; details: in vivo
[4] = AUC (0 to 24 hrs) in male Sprague-Dawley rat at 10 mg/kg, iv measured upto 24 hrs; format: ADME, organism-based; details: in vivo
[5] = Clearance in male Sprague-Dawley rat at 10 mg/kg, iv measured upto 24 hrs; format: ADME, organism-based; details: in vivo
[6] = Cmax in male Sprague-Dawley rat at 20 mg/kg, po measured upto 24 hrs; format: ADME, organism-based; details: in vivo
[7] = Half life in male Sprague-Dawley rat at 20 mg/kg, po measured upto 24 hrs; format: ADME, organism-based; details: in vivo
[8] = Tmax in male Sprague-Dawley rat at 20 mg/kg, po measured upto 24 hrs; format: ADME, organism-based; details: in vivo
[9] = AUC (0 to 24 hrs) in male Sprague-Dawley rat at 20 mg/kg, po measured upto 24 hrs; format: ADME, organism-based; details: in vivo
[10] = Clearance in male Sprague-Dawley rat at 20 mg/kg, po measured upto 24 hrs; format: ADME, organism-based; details: in vivo
[11] = Oral bioavailability in male Sprague-Dawley rat at 20 mg/kg measured upto 24 hrs; format: ADME, organism-based; details: in vivo
RAW264.7 [12] = experiment: Anti-inflammatory activity in LPS-induced ALI in mouse RAW264.7 cells assessed as decrease in intracellular ROS level by DCFH-DA staining based flow cytometry analysis (reference value: 91.2%); format: functional; parameters: scale not given: the % may be the effect or the level left
RAW264.7 [13] = experiment: Induction of pyroptosis in LPS induced mouse RAW264.7 cells by caspase-1/PI staining based flow cytometry (reference value: 49.6 %); format: functional
P2Y purinoceptor 1 = P2Y purinoceptor 1 (Homo sapiens, UniProt P47900); experiment: Antagonist activity at human P2Y1R stably expressed in HEK293 cells assessed as inhibition of ADP-induced IP3 accumulation preincubated with compound for 30 mins followed by ADP addition by ELISA method; format: functional, cell-based
P2Y purinoceptor 2 = P2Y purinoceptor 2 (Homo sapiens, UniProt P41231); experiment: Antagonist activity at human P2Y2R stably expressed in HEK293 cells assessed as inhibition of UTP-induced IP3 accumulation preincubated with compound for 30 mins followed by UTP addition by ELISA method; format: functional, cell-based
P2Y purinoceptor 4 = P2Y purinoceptor 4 (Homo sapiens, UniProt P51582); experiment: Antagonist activity at human P2Y4R stably expressed in HEK293 cells assessed as inhibition of UTP-induced IP3 accumulation preincubated with compound for 30 mins followed by UTP addition by ELISA; format: functional, cell-based
P2Y purinoceptor 6 = P2Y purinoceptor 6 (Homo sapiens, UniProt Q15077); experiment: Antagonist activity at human P2Y6R stably expressed in HEK293 cells assessed as inhibition of UDP-induced IP3 accumulation preincubated with compound for 30 mins followed by UDP addition by ELISA; format: functional, cell-based
P2Y purinoceptor 12 = P2Y purinoceptor 12 (Homo sapiens, UniProt Q9H244); experiment: Antagonist activity at human P2Y12R stably expressed in HEK293 cells assessed as inhibition of 2-MeSADP-induced IP3 accumulation preincubated with compound for 30 mins followed by 2-MeSADP addition by ELISA; format: functional, cell-based
Cytochrome P450 1A2 = target: T1, Cytochrome P450 1A2 (Homo sapiens, UniProt P05177); experiment: Inhibition of CYP1A2 in human liver microsomes using phenacetin as substrate measured after 30 mins by LC/MS analysis; format: ADME, Microsome
T1 sequence (P05177 whole entry): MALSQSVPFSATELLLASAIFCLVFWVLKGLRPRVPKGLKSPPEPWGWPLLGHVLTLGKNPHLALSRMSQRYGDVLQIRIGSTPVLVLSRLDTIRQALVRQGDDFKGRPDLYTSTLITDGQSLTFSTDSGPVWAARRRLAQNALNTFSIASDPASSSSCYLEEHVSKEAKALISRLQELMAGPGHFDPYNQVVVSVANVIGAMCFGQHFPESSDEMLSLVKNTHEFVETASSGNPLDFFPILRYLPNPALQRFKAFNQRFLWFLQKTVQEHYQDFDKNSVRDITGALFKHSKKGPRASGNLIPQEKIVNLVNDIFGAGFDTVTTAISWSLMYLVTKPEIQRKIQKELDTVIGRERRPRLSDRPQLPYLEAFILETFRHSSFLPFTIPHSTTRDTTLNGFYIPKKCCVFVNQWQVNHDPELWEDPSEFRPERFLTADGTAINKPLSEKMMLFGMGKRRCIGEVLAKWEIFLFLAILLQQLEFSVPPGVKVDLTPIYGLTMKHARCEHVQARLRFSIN

Cytochrome P450 2C9 = Cytochrome P450 2C9 (Homo sapiens, UniProt P11712); experiment: Inhibition of CYP2C9 in human liver microsomes using diclofenac as substrate measured after 30 mins by LC/MS analysis; format: ADME, Microsome
Cytochrome P450 2C19 = Cytochrome P450 2C19 (Homo sapiens, UniProt P33261); experiment: Inhibition of CYP2C19 in human liver microsomes using mephenytoin as substrate measured after 30 mins by LC/MS analysis; format: ADME, Microsome
Cytochrome P450 2D6 = Cytochrome P450 2D6 (Homo sapiens, UniProt P10635); experiment: Inhibition of CYP2D6 in human liver microsomes using dextromethorphan as substrate measured after 30 mins by LC/MS analysis; format: ADME, Microsome
Cytochrome P450 3A4 = Cytochrome P450 3A4 (Homo sapiens, UniProt P08684); experiment: Inhibition of CYP3A4 in human liver microsomes using midazolam as substrate measured after 30 mins by LC/MS analysis; format: ADME, Microsome
[14] = Stability of the compound in stimulated intestinal fluid assessed as half life; format: physicochemical; details: simulated intestinal fluid
[15] = Stability of the compound in stimulated gastric fluid assessed as half life; format: physicochemical; details: simulated gastric fluid
[16] = Metabolic stability in human liver microsomes assessed as intrinsic clearance at […] measured upto 45 mins in presence of NADPH by LC-MS analysis; format: ADME, Microsome; details: read-out: CLH
[17] = Metabolic stability in human liver microsomes assessed as half life at […] measured upto 45 mins in presence of NADPH by LC-MS analysis; format: ADME, Microsome
RAW264.7 [18] = experiment: Cytotoxicity in mouse Raw264.7 cells at <80 uM incubated for 24 hrs by SRB method; format: toxicity, cell-based; details: raw264.7, 24 h

Chain of Cytochrome P450 3A4 (P08684 whole entry): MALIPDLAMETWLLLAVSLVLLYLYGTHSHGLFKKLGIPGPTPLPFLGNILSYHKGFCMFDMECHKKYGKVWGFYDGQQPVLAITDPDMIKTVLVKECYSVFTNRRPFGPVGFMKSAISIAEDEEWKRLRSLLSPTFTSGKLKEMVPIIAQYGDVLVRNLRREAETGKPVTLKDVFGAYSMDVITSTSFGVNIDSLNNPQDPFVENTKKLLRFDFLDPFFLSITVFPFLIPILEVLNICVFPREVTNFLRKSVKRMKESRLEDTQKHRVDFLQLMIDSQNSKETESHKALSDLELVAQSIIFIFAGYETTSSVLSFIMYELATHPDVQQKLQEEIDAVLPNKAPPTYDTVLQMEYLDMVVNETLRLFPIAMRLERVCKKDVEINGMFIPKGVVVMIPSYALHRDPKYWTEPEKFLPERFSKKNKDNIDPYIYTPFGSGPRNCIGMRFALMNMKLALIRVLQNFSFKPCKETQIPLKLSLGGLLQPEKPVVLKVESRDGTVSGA
Chain of Cytochrome P450 2C9 (P11712 whole entry): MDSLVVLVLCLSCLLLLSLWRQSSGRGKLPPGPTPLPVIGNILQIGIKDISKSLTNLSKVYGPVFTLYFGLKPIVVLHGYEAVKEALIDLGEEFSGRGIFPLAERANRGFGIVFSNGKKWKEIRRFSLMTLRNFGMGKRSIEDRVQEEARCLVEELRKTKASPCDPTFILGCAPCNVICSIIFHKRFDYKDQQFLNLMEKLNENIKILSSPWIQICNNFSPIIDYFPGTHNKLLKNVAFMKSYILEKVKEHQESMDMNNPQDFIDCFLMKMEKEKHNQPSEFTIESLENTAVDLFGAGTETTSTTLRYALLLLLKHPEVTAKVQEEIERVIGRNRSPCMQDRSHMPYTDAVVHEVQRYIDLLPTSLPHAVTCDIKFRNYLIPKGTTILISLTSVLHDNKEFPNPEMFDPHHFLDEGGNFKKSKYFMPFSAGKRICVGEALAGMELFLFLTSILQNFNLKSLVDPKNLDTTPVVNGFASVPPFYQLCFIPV
Chain of P2Y purinoceptor 2 (P41231 whole entry): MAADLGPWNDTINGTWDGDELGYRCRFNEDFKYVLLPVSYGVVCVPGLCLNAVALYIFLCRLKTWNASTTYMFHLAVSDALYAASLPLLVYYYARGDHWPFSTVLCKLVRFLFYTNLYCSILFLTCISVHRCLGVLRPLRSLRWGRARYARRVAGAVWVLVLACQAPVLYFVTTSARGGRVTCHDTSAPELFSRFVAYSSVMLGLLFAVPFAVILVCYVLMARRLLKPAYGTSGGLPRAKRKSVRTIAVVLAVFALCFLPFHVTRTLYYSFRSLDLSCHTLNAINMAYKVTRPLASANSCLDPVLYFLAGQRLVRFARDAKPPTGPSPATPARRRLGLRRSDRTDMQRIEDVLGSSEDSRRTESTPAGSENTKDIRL
Chain of P2Y purinoceptor 12 (Q9H244 whole entry): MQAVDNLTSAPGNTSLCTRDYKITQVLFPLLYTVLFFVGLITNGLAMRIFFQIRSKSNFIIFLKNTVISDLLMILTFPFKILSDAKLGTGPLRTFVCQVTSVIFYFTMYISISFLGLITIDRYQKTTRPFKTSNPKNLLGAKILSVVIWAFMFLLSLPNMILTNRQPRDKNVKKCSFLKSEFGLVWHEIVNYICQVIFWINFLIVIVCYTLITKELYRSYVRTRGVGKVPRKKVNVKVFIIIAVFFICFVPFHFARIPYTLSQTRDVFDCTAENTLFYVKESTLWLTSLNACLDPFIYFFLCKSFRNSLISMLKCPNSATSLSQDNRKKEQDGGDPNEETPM
Chain of Cytochrome P450 2C19 (P33261 whole entry): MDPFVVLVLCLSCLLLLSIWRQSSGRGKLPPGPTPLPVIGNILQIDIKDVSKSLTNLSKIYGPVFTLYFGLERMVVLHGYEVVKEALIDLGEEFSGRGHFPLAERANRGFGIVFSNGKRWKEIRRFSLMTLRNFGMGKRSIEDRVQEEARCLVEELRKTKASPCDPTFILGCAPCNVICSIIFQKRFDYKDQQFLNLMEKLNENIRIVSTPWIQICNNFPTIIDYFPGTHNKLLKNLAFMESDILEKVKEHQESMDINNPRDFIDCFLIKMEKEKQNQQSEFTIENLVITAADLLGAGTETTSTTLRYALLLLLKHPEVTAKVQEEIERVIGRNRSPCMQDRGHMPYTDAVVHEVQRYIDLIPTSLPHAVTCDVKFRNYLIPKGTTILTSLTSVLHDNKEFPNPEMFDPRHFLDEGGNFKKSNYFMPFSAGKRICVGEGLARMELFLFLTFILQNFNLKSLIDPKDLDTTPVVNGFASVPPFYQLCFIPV
Chain of P2Y purinoceptor 1 (P47900 whole entry): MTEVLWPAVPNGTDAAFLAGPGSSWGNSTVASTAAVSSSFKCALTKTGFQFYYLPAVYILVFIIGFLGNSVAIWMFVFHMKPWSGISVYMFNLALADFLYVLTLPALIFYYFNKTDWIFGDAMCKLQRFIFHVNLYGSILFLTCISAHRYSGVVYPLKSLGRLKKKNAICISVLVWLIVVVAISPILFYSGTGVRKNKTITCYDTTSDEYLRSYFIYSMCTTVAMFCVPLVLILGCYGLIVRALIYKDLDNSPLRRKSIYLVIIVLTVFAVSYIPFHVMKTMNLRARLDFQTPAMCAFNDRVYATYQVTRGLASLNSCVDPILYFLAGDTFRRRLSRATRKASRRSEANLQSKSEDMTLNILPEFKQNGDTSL
Chain of P2Y purinoceptor 6 (Q15077 whole entry): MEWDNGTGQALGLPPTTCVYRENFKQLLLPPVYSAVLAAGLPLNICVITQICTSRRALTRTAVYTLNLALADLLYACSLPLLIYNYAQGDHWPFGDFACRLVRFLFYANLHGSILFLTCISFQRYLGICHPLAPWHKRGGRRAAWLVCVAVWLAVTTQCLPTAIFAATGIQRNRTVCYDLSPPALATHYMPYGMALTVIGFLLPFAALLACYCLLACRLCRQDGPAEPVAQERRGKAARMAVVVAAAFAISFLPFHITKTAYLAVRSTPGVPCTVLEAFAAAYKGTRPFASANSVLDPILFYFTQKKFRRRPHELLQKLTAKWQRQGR
Chain of Cytochrome P450 2D6 (P10635 whole entry): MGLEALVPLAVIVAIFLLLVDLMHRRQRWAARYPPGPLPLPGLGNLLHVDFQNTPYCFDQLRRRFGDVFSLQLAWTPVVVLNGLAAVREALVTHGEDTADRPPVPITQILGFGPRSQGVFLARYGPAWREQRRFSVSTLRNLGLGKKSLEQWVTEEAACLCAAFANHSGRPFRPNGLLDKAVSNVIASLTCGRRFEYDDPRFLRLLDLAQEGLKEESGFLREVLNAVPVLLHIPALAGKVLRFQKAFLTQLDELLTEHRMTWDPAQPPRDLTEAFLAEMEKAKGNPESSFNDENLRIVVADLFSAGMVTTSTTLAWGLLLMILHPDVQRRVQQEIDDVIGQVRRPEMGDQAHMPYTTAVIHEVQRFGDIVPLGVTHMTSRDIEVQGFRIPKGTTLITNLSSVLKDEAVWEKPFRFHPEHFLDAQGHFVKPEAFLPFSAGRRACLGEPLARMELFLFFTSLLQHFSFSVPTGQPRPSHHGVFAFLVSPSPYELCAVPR
Chain of P2Y purinoceptor 4 (P51582 whole entry): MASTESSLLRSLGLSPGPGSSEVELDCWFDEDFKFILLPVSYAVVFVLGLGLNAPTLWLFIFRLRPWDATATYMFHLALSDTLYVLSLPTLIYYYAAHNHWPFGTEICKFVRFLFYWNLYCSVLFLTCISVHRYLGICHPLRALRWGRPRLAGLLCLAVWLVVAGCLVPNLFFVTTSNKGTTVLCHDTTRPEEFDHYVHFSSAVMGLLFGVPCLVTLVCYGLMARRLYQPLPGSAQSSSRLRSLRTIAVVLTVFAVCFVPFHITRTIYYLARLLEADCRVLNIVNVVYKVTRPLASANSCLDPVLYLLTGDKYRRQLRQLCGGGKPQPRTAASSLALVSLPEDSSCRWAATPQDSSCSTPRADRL

O=C(O)c1cc(-c2ccc(C3CCNCC3)cc2)c2ccc(-c3ccc(C(F)(F)F)cc3)cc2c1 [PPTN]
Cmax ([1]; iv, 10 mg/kg, 24 h): 1024 ng/mL
t1/2 ([2]; iv, 10 mg/kg, 24 h): 12 min
Tmax ([3]; iv, 10 mg/kg, 24 h): 8 min
AUC ([4]; iv, 10 mg/kg, 24 h): 2411 ng·h/mL
clearance [5]: 11.5 mL/min/kg
Cmax [6]: 1540 ng/mL
half-life [7]: 24 min
Tmax [8]: 17 min
AUC ([9]; po, 20 mg/kg, 24 h): 3001 ng·h/mL
CL/F [10]: 22.1 mL/min/kg
F ([11]; po, 20 mg/kg, 24 h): 12%
Activity (RAW264.7 [12]): 58.7%
Activity (RAW264.7 [13]): 8.93%

COC(=O)c1cc(NC(=O)Cc2ccc(C)cc2)cc(-c2nc3ccccc3[nH]2)c1
IC50 (P2Y purinoceptor 1): > 100 µM
IC50 (P2Y purinoceptor 2): > 100 µM
IC50 (P2Y purinoceptor 4): > 100 µM
IC50 (P2Y purinoceptor 6): 47.6 µM
IC50 (P2Y purinoceptor 12): > 100 µM
IC50 (Cytochrome P450 1A2): > 30 µM
IC50 (Cytochrome P450 2C9): > 30 µM
IC50 (Cytochrome P450 2C19): > 30 µM
IC50 (Cytochrome P450 2D6): > 30 µM
IC50 (Cytochrome P450 3A4): > 30 µM
half-life [14]: > 300 min
half-life [15]: > 50 h
microsomal CLint [16]: 25.6 µL/min/mg
half-life [17]: 354 min
Cmax ([1]; male, Sprague-Dawley, read-out: Cmax): 964 ng/mL
half-life ([2]; male, Sprague-Dawley): 48 min
Tmax ([3]; male, Sprague-Dawley, read-out: Tmax (converted)): 19 min
AUC(0-t) at 24 h ([4]; male, Sprague-Dawley): 895 ng·h/mL
clearance [5]: 26.1 mL/min/kg
Cmax [6]: 1940 ng/mL
half-life [7]: 96 min
Tmax [8]: 26 min
AUC(0-t) at 24 h ([9]; male, Sprague-Dawley): 1120 ng·h/mL
CL/F [10]: 46.5 mL/min/kg
bioavailability ([11]; male, Sprague-Dawley): 38%
Activity (RAW264.7 [18]): Non-toxic
